In brackets after ≈: the same amount, converted by molar mass. Like-named read-outs stand apart in the source and are kept apart here.
Legend:
Test in all cases: in vitro antibacterial activity, agar plate dilution method
Assay type in all cases: cell-based
A. calcoaceticus No. 4 = details: Acinetobacter calcoaceticus
Method: (§1) Now, the in vitro antibacterial activities of the compounds of the present invention against various microorganisms, were measured by the following agar plate dilution method.
(§2) One platinum loopfull of each test microorganism incubated overnight in Mueller Hinton broth, was inoculated to Mueller Hinton agar (MH agaer). Such culture media containing various antibiotics in various concentrations were prepared. After incubation at 37° C. for 16 hours, the minimum inhibitory concentrations (MIC μg/ml) were measured.

E. cloacae 963 = details: Enterobacter cloacae, 963, 16 h
Method: as §1, §2

E. cloacae Nek 39* = details: Enterobacter cloacae
Method: as §1, §2

E. coli CSH(RE45)* = details: Escherichia coli; 10^6 CFU/ml; β-Lactamase-producing strain; 37° C., 16 hours; read-out: MIC
Method: as §1, §2

E. coli CSH2(RK1)* = details: Escherichia coli, 16 h
Method: as §1, §2

E. coli GN5482* = details: Escherichia coli
Method: as §1, §2

E. coli NIHJ JC2 = details: Escherichia coli, NIHJJC2; 10^6 CFU/ml; Mueller Hinton agar, 37° C., 16 hours; read-out: MIC
Method: as §1, §2

K. oxytoca GN10650* = details: Klebsiella oxytoca, GN10650, 16 h
Method: as §1, §2

K. pneumoniae No. 42* = details: Klebsiella pneumoniae
Method: as §1, §2

K. pneumoniae PC1-602 = details: Klebsiella pneumoniae
Method: as §1, §2

M. morganii GN5407* = details: Morganella morganii
Method: as §1, §2

P. vulgaris HX-19 = details: Proteus vulgaris
Method: as §1, §2

P. vulgaris No. 33* = details: Proteus vulgaris
Method: as §1, §2

Ps. aeruginosa AK 109 = details: Pseudomonas aeruginosa
Method: as §1, §2

Ps. aeruginosa AKR17 = details: Pseudomonas aeruginosa
Method: as §1, §2

Ps. aeruginosa IFO3445 = details: Pseudomonas aeruginosa
Method: as §1, §2

Ps. cepacia 23 = test system: Ps. cepacia 23
Method: as §1, §2

S. aureus 209P NIHJ-JC1 = details: Staphylococcus aureus
Method: as §1, §2

S. marcescens IAM 1184 = details: Serratia marcescens, IAM1184, 16 h
Method: as §1, §2

S. marcescens No. 16-2* = details: Serratia marcescens
Method: as §1, §2

[1] = 10^6 CFU/ml, β-Lactamase-producing strain, 37° C., 16 hours, read-out: MIC
[2] = HX19, 10^6 CFU/ml, Mueller Hinton agar, 37° C., 16 hours, read-out: MIC
[3] = Burkholderia cepacia, 23, 10^6 CFU/ml, Mueller Hinton agar, 37° C., 16 hours, read-out: MIC
[4] = 10^6 CFU/ml, Mueller Hinton agar, 37° C., 16 hours, read-out: MIC
[5] = NO.4, 10^6 CFU/ml, Mueller Hinton agar, 37° C., 16 hours, read-out: MIC
[6] = AK109, 10^6 CFU/ml, Mueller Hinton agar, 37° C., 16 hours, read-out: MIC
[7] = AKR17, 10^6 CFU/ml, Mueller Hinton agar, 37° C., 16 hours, read-out: MIC
[8] = IFO3445, 10^6 CFU/ml, Mueller Hinton agar, 37° C., 16 hours, read-out: MIC
[9] = GN5482, 10^6 CFU/ml, β-Lactamase-producing strain, 37° C., 16 hours, read-out: MIC

## C=C(O/N=C(\C(=O)N[C@@H]1C(=O)N2C(C(=O)O)=C(CSc3nnc(-c4ccc(O)c(O)c4)s3)CS[C@H]12)c1csc(N)n1)C(=O)O [Example 13, disodium 7β-[2-(2-aminothiazol-4-yl)-2-(1-carboxylato-1-vinyloxyimino)acetamido]-3-[5-(3,4-dihydroxyphenyl)-1,3,4-thiadiazol-2-yl]thiomethyl-3-cephem-4-carboxylate (syn-isomer)]
A. calcoaceticus No. 4; NO.4, 16 h
  MIC: 0.1 µg/mL
E. cloacae 963
  MIC: 0.05 µg/mL
E. cloacae Nek 39*; 16 h
  MIC: 0.05 µg/mL
E. coli CSH(RE45)*
  MIC: < 0.006 µg/mL
E. coli CSH2(RK1)*
  MIC: < 0.006 µg/mL
E. coli GN5482*; GN5482, 16 h
  MIC: 0.2 µg/mL
E. coli NIHJ JC2
  MIC: 0.2 µg/mL
K. oxytoca GN10650*
  MIC: 0.025 µg/mL
K. pneumoniae No. 42*; [1]
  MIC: 0.0125 µg/mL
K. pneumoniae PC1-602; PC1602, 10^6 CFU/ml, Mueller Hinton agar, 37° C., 16 hours, read-out: MIC
  MIC: 0.0125 µg/mL
M. morganii GN5407*; GN5407, 16 h
  MIC: 0.1 µg/mL
P. vulgaris HX-19; [2]
  MIC: < 0.006 µg/mL
P. vulgaris No. 33*; 16 h
  MIC: 0.025 µg/mL
Ps. aeruginosa AK 109; AK109, 16 h
  MIC: 0.1 µg/mL
Ps. aeruginosa AKR17; AKR17, 16 h
  MIC: 1.56 µg/mL
Ps. aeruginosa IFO3445; IFO3445, 16 h
  MIC: 0.78 µg/mL
Ps. cepacia 23; [3]
  MIC: < 0.006 µg/mL
S. aureus 209P NIHJ-JC1; [4]
  MIC: 3.12 µg/mL
S. marcescens IAM 1184
  MIC: 0.025 µg/mL
S. marcescens No. 16-2*; 16 h
  MIC: 0.05 µg/mL

## C=C(O/N=C(\C(=O)N[C@@H]1C(=O)N2C(C(=O)O)=C(CSc3nnc(C)s3)CS[C@H]12)c1csc(N)n1)C(=O)O [Example 18, disodium 7β-[2-(2-aminothiazol-4-yl)-2-11-carboxylato-1-vinyloxyimino)acetamido]-3-(5-methyl-1,3,4-thiadiazol-2-yl)thiomethyl-3-cephem-4-carboxylate (syn-isomer)]
A. calcoaceticus No. 4; [5]
  MIC: 100 µg/mL
E. cloacae 963
  MIC: 0.2 µg/mL
E. cloacae Nek 39*; 16 h
  MIC: 0.78 µg/mL
E. coli CSH(RE45)*
  MIC: 0.1 µg/mL
E. coli CSH2(RK1)*
  MIC: 0.025 µg/mL
E. coli GN5482*; GN5482, 16 h
  MIC: 0.39 µg/mL
E. coli NIHJ JC2
  MIC: 0.2 µg/mL
K. oxytoca GN10650*
  MIC: 0.2 µg/mL
K. pneumoniae No. 42*; 16 h
  MIC: 0.39 µg/mL
K. pneumoniae PC1-602; PC1602, 16 h
  MIC: 0.025 µg/mL
M. morganii GN5407*; GN5407, 10^6 CFU/ml, β-Lactamase-producing strain, 37° C., 16 hours, read-out: MIC
  MIC: 0.0125 µg/mL
P. vulgaris HX-19; [2]
  MIC: < 0.006 µg/mL
P. vulgaris No. 33*; [1]
  MIC: < 0.006 µg/mL
Ps. aeruginosa AK 109; [6]
  MIC: 12.5 µg/mL
Ps. aeruginosa AKR17; [7]
  MIC: > 100 µg/mL
Ps. aeruginosa IFO3445; [8]
  MIC: 12.5 µg/mL
Ps. cepacia 23; [3]
  MIC: 3.12 µg/mL
S. aureus 209P NIHJ-JC1; [4]
  MIC: 3.12 µg/mL
S. marcescens IAM 1184
  MIC: 0.025 µg/mL
S. marcescens No. 16-2*; [1]
  MIC: 3.12 µg/mL

## C=C(O/N=C(\C(=O)N[C@@H]1C(=O)N2C(C(=O)O)=C(C[n+]3ccc(CCS(=O)(=O)[O-])cc3)CS[C@H]12)c1csc(N)n1)C(=O)O [Example 8, 7β-[2-(2-aminothiazol-4-yl)-2-(1-carboxy-1-vinyloxyimino)acetamido]-3-[4-(2-sulfonatoethyl)-1-pyridinio]methyl-3-cephem-4-carboxylic acid (syn-isomer)]
A. calcoaceticus No. 4; [5]
  MIC: 12.5 µg/mL (≈ 19.6 µM)
E. cloacae 963
  MIC: 0.2 µg/mL (≈ 0.313 µM)
E. cloacae Nek 39*; 16 h
  MIC: 0.78 µg/mL (≈ 1.22 µM)
E. coli CSH(RE45)*
  MIC: 0.05 µg/mL (≈ 0.0783 µM)
E. coli CSH2(RK1)*
  MIC: 0.05 µg/mL (≈ 0.0783 µM)
E. coli GN5482*; [9]
  MIC: 0.39 µg/mL (≈ 0.611 µM)
E. coli NIHJ JC2
  MIC: 0.05 µg/mL (≈ 0.0783 µM)
K. oxytoca GN10650*
  MIC: 0.2 µg/mL (≈ 0.313 µM)
K. pneumoniae No. 42*; [1]
  MIC: 0.39 µg/mL (≈ 0.611 µM)
K. pneumoniae PC1-602; PC1602, 16 h
  MIC: 0.025 µg/mL (≈ 0.0391 µM)
M. morganii GN5407*; GN5407, 16 h
  MIC: 0.05 µg/mL (≈ 0.0783 µM)
P. vulgaris HX-19; HX19, 16 h
  MIC: 0.025 µg/mL (≈ 0.0391 µM)
P. vulgaris No. 33*; 16 h
  MIC: 0.05 µg/mL (≈ 0.0783 µM)
Ps. aeruginosa AK 109; [6]
  MIC: 12.5 µg/mL (≈ 19.6 µM)
Ps. aeruginosa AKR17; [7]
  MIC: > 100 µg/mL
Ps. aeruginosa IFO3445; [8]
  MIC: 3.12 µg/mL (≈ 4.89 µM)
Ps. cepacia 23; [3]
  MIC: 12.5 µg/mL (≈ 19.6 µM)
S. aureus 209P NIHJ-JC1; [4]
  MIC: 6.25 µg/mL (≈ 9.79 µM)
S. marcescens IAM 1184
  MIC: 0.025 µg/mL (≈ 0.0391 µM)
S. marcescens No. 16-2*; [1]
  MIC: 3.12 µg/mL (≈ 4.89 µM)

## C=C(O/N=C(\C(=O)N[C@@H]1C(=O)N2C(C(=O)[O-])=C(C[n+]3cccc(C(=O)O)c3)CS[C@H]12)c1csc(N)n1)C(=O)O [Example 3, 7β-[2-(2-aminothiazol-4-yl)-2-(1-carboxy-1-vinyloxyimino)acetamido]-3-(3-carboxy-1-pyridinio)methyl-3-cephem-4-carboxylate (syn-isomer)]
A. calcoaceticus No. 4; [5]
  MIC: 25 µg/mL (≈ 43.5 µM)
E. cloacae 963
  MIC: 0.1 µg/mL (≈ 0.174 µM)
E. cloacae Nek 39*; [1]
  MIC: 3.12 µg/mL (≈ 5.43 µM)
E. coli CSH(RE45)*
  MIC: 0.05 µg/mL (≈ 0.087 µM)
E. coli CSH2(RK1)*
  MIC: 0.05 µg/mL (≈ 0.087 µM)
E. coli GN5482*; [9]
  MIC: 3.12 µg/mL (≈ 5.43 µM)
E. coli NIHJ JC2
  MIC: 0.2 µg/mL (≈ 0.348 µM)
K. oxytoca GN10650*
  MIC: 0.2 µg/mL (≈ 0.348 µM)
K. pneumoniae No. 42*; 16 h
  MIC: 0.39 µg/mL (≈ 0.679 µM)
K. pneumoniae PC1-602; PC1602, 16 h
  MIC: 0.025 µg/mL (≈ 0.0435 µM)
M. morganii GN5407*; GN5407, 16 h
  MIC: 0.05 µg/mL (≈ 0.087 µM)
P. vulgaris HX-19; [2]
  MIC: 0.0125 µg/mL (≈ 0.0218 µM)
P. vulgaris No. 33*; 16 h
  MIC: 0.05 µg/mL (≈ 0.087 µM)
Ps. aeruginosa AK 109; [6]
  MIC: 100 µg/mL (≈ 174 µM)
Ps. aeruginosa AKR17; [7]
  MIC: > 100 µg/mL
Ps. aeruginosa IFO3445; IFO3445, 16 h
  MIC: 6.25 µg/mL (≈ 10.9 µM)
Ps. cepacia 23; Burkholderia cepacia, 23, 16 h
  MIC: 6.25 µg/mL (≈ 10.9 µM)
S. aureus 209P NIHJ-JC1; 16 h
  MIC: 6.25 µg/mL (≈ 10.9 µM)
S. marcescens IAM 1184
  MIC: 0.05 µg/mL (≈ 0.087 µM)
S. marcescens No. 16-2*; [1]
  MIC: 3.12 µg/mL (≈ 5.43 µM)

From patent publication US5084453A, “1-carboxy-1-vinyloxyimino aminothiazole cephalosporin derivatives” (priority 1988, dated 1992)
